Test results as given in PubChem BioAssay AID330 (DTP/NCI, 2004).
“And” between values parts separate entries of the source, which are not always exact repeats. Equal entries are not always repeated. Toxic doses and inconclusive results are not listed.

Tested on: P388 leukemia ip, CD2F1 mice, survival T/C
Experiment: NCI In Vivo Anticancer Drug Screen. Data for tumor model P388 Leukemia (intraperitoneal) in CD2F1 (CDF1) mice
Settings: endpoint: median survival time, higher = longer survival
Summary of the method: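 Mice carrying the transplanted tumor received test compound or vehicle. Survival was recorded in each group, and the value is the treated-group measurement divided by that of the vehicle-treated control group.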

[1] = dose: 50.0 mg/kg/injection, schedule: Q01DX009 (ip), vehicle: saline with Tween-80
[2] = dose: 100.0 mg/kg/injection, schedule: Q01DX009 (ip), vehicle: saline with Tween-80
[3] = dose: 200.0 mg/kg/injection, schedule: Q01DX009 (ip), vehicle: saline with Tween-80
[4] = dose: 50.0 mg/kg/injection, schedule: Q01DX005 (ip), vehicle: saline
[5] = dose: 50.0 mg/kg/injection, schedule: Q01DX009 (ip), vehicle: Klucel (hydroxypropylcellulose) (HPC)
[6] = dose: 100.0 mg/kg/injection, schedule: Q01DX009 (ip), vehicle: Klucel (hydroxypropylcellulose) (HPC)
[7] = dose: 200.0 mg/kg/injection, schedule: Q01DX009 (ip), vehicle: Klucel (hydroxypropylcellulose) (HPC)
[8] = dose: 60.0 mg/kg/injection, schedule: Q01DX005 (ip), vehicle: saline with Tween-80
[9] = dose: 120.0 mg/kg/injection, schedule: Q01DX005 (ip), vehicle: saline with Tween-80
[10] = dose: 240.0 mg/kg/injection, schedule: Q01DX005 (ip), vehicle: saline with Tween-80
[11] = dose: 50.0 mg/kg/injection, schedule: Q01DX005 (ip), vehicle: saline with Tween-80
[12] = dose: 100.0 mg/kg/injection, schedule: Q01DX005 (ip), vehicle: saline with Tween-80

N=c1nc(-c2ccccc2)nc2[nH]c3c4cccc5cccc(c3nc12)c54
T/C (dose: 50.0 mg/kg/injection, schedule: Q01DX005 (ip), vehicle: Klucel + Tween-80): 90 % of control | T/C (dose: 100.0 mg/kg/injection, schedule: Q01DX005 (ip), vehicle: Klucel + Tween-80): 99 % of control | T/C (dose: 200.0 mg/kg/injection, schedule: Q01DX005 (ip), vehicle: Klucel + Tween-80): 99 % of control

O=c1oc2ccccc2c2c1SC(c1ccncc1)C2 (stereo not given)
T/C (dose: 60.0 mg/kg/injection, schedule: Q01DX005 (ip), vehicle: Klucel (hydroxypropylcellulose) (HPC)): 91 % of control | T/C (dose: 120.0 mg/kg/injection, schedule: Q01DX005 (ip), vehicle: Klucel (hydroxypropylcellulose) (HPC)): 88 % of control | T/C (dose: 240.0 mg/kg/injection, schedule: Q01DX005 (ip), vehicle: Klucel (hydroxypropylcellulose) (HPC)): 91 % of control

C/C(=N\NC(=S)N1CCCCCC1)c1ccc[nH]1
T/C (dose: 100.0 mg/kg/injection, schedule: Q04DX002 (ip), vehicle: Klucel (hydroxypropylcellulose) (HPC)): 111 % of control | T/C (dose: 200.0 mg/kg/injection, schedule: Q04DX002 (ip), vehicle: Klucel (hydroxypropylcellulose) (HPC)): 102 % of control | T/C (dose: 400.0 mg/kg/injection, schedule: Q04DX002 (ip), vehicle: Klucel (hydroxypropylcellulose) (HPC)): 107 % of control

CCCCCCC(=O)/C=C/c1ccc([N+](=O)[O-])cc1
T/C [1]: 99 % of control | T/C [2]: 99 % of control | T/C [3]: 92 % of control

Cc1ccc(S(=O)CF)cc1 (stereo not given)
T/C (dose: 100.0 mg/kg/injection, schedule: Q04DX003 (ip), vehicle: saline with Tween-80): 107 % of control

CN(C)c1ccc(C(C#N)C(C#N)c2ccccc2)cc1 (stereo not given)
T/C (dose: 6.25 mg/kg/injection, schedule: Q01DX009 (ip), vehicle: saline with Tween-80): 94 % of control | T/C (dose: 12.5 mg/kg/injection, schedule: Q01DX009 (ip), vehicle: saline with Tween-80): 94 % of control | T/C (dose: 25.0 mg/kg/injection, schedule: Q01DX009 (ip), vehicle: saline with Tween-80): 103 % of control | T/C [1]: 100 % of control

O=c1[nH]c(=S)[nH]nc1/C=C/C=C/c1ccccc1
T/C (dose: 100.0 mg/kg/injection, schedule: Q01DX001 (ip), vehicle: saline): 96 % of control | T/C (dose: 200.0 mg/kg/injection, schedule: Q01DX001 (ip), vehicle: saline): 97 % of control | T/C (dose: 400.0 mg/kg/injection, schedule: Q01DX001 (ip), vehicle: saline): 105 % of control

CCCCN(CCCC)CC(CN(CC)CC)N(CC)C(=O)Nc1ccccc1 (stereo not given)
T/C (dose: 12.5 mg/kg/injection, schedule: Q01DX005 (ip), vehicle: saline): 94 % of control | T/C (dose: 25.0 mg/kg/injection, schedule: Q01DX005 (ip), vehicle: saline): 93 % of control | T/C [4]: 102 % of control and 94 % of control

O=c1oc(-c2ccco2)ns1
T/C (dose: 12.5 mg/kg/injection, schedule: Q01DX009 (ip), vehicle: Klucel (hydroxypropylcellulose) (HPC)): 97 % of control | T/C (dose: 25.0 mg/kg/injection, schedule: Q01DX009 (ip), vehicle: Klucel (hydroxypropylcellulose) (HPC)): 110 % of control | T/C [5]: 97 % of control

Cc1ccc(C)c(C2(c3cc(C)ccc3C)CCCCCC2=O)c1
T/C (dose: 100.0 mg/kg/injection, schedule: Q01DX005 (ip), vehicle: Klucel (hydroxypropylcellulose) (HPC)): 88 % of control

C=C(Cl)C(=NC(C)(C)C)N(CC)CC
T/C (dose: 12.5 mg/kg/injection, schedule: Q01DX005 (ip), vehicle: Klucel (hydroxypropylcellulose) (HPC)): 104 % of control | T/C (dose: 25.0 mg/kg/injection, schedule: Q01DX005 (ip), vehicle: Klucel (hydroxypropylcellulose) (HPC)): 104 % of control | T/C (dose: 50.0 mg/kg/injection, schedule: Q01DX005 (ip), vehicle: Klucel (hydroxypropylcellulose) (HPC)): 107 % of control and 110 % of control

c1ccc2c(c1)O[As](O[As]1Oc3ccccc3O1)O2
T/C (dose: 2.5 mg/kg/injection, schedule: Q01DX009 (ip), vehicle: saline with Tween-80): 106 % of control | T/C (dose: 5.0 mg/kg/injection, schedule: Q01DX009 (ip), vehicle: saline with Tween-80): 122 % of control | T/C (dose: 20.0 mg/kg/injection, schedule: Q01DX009 (ip), vehicle: saline with Tween-80): 161 % of control

Nc1nc(Nc2ccccc2)n[nH]1
T/C [5]: 102 % of control | T/C [6]: 102 % of control | T/C [7]: 94 % of control

O=S(=O)(Nc1ccccc1F)c1ccc(F)cc1
T/C [8]: 106 % of control | T/C [9]: 100 % of control | T/C [10]: 106 % of control

CCC12CCCN3CCC4(c5ccc(OC)cc5N(C)C4C(O)(OC(C)=O)C1OC(C)O)C32 (stereo not given)
T/C [11]: 100 % of control | T/C [12]: 87 % of control

COc1cc(C2c3cc4c(cc3C3OC(=O)C2C3CO)OCO4)cc(OC)c1OC (stereo not given)
T/C (dose: 0.12 mg/kg/injection, schedule: Q01DX009 (ip), vehicle: Klucel (hydroxypropylcellulose) (HPC)): 117 % of control | T/C (dose: 0.25 mg/kg/injection, schedule: Q01DX009 (ip), vehicle: Klucel (hydroxypropylcellulose) (HPC)): 115 % of control | T/C (dose: 0.5 mg/kg/injection, schedule: Q01DX009 (ip), vehicle: Klucel (hydroxypropylcellulose) (HPC)): 120 % of control | T/C (dose: 3.12 mg/kg/injection, schedule: Q01DX009 (ip), vehicle: Klucel (hydroxypropylcellulose) (HPC)): 118 % of control | T/C (dose: 6.25 mg/kg/injection, schedule: Q01DX009 (ip), vehicle: Klucel (hydroxypropylcellulose) (HPC)): 118 % of control

Cc1ccc2nc(-c3cccc(Cl)c3)oc(=O)c2c1
T/C [5]: 110 % of control | T/C [6]: 102 % of control | T/C [7]: 92 % of control

CC(C)(C)CC(C)(C)c1ccc(OCc2ccccc2Cl)cc1
T/C [1]: 98 % of control | T/C [2]: 95 % of control | T/C [3]: 100 % of control

COc1cccc2c1[C@H]1CO[C@H]3C4C[C@H](C(=O)O)C([C@@H](C2)N13)N4C (stereo not given in full)
T/C (dose: 0.31 mg/kg/injection, schedule: Q01DX005 (ip), vehicle: water): 112 % of control | T/C (dose: 0.62 mg/kg/injection, schedule: Q01DX005 (ip), vehicle: water): 113 % of control and 121 % of control | T/C (dose: 1.25 mg/kg/injection, schedule: Q01DX005 (ip), vehicle: water): 116 % of control | T/C (dose: 10.0 mg/kg/injection, schedule: Q01DX005 (ip), vehicle: water): 165 % of control and 195 % of control and 247 % of control | T/C (dose: 20.0 mg/kg/injection, schedule: Q01DX005 (ip), vehicle: water): 247 % of control

CC(CC(=O)O)C(C(=O)O)C(=O)O (stereo not given)
T/C [4]: 104 % of control | T/C (dose: 100.0 mg/kg/injection, schedule: Q01DX005 (ip), vehicle: saline): 101 % of control

CSC(/C=C1\C=Cc2ccccc2N1C)=NC#N
T/C (dose: 25.0 mg/kg/injection, schedule: Q04DX002 (ip), vehicle: saline with Tween-80): 100 % of control | T/C (dose: 50.0 mg/kg/injection, schedule: Q04DX002 (ip), vehicle: saline with Tween-80): 106 % of control | T/C (dose: 100.0 mg/kg/injection, schedule: Q04DX002 (ip), vehicle: saline with Tween-80): 97 % of control

Clc1ccc(CCNCc2ccc(Cl)cc2)cc1
T/C (dose: 12.5 mg/kg/injection, schedule: Q01DX005 (ip), vehicle: saline with Tween-80): 87 % of control | T/C (dose: 25.0 mg/kg/injection, schedule: Q01DX005 (ip), vehicle: saline with Tween-80): 97 % of control | T/C [11]: 106 % of control and 97 % of control

C=COC(=O)C(NC(=O)OCc1ccccc1)c1ccccc1 (stereo not given)
T/C [11]: 102 % of control | T/C [12]: 101 % of control | T/C (dose: 200.0 mg/kg/injection, schedule: Q01DX005 (ip), vehicle: saline with Tween-80): 95 % of control

CC(=O)OC12CC[N+]3(C)CCCCC3C1=Nc1ccccc12 (stereo not given)
T/C (dose: 12.5 mg/kg/injection, schedule: Q01DX009 (ip), vehicle: saline): 110 % of control | T/C (dose: 25.0 mg/kg/injection, schedule: Q01DX009 (ip), vehicle: saline): 99 % of control

CCCCCCCCOP(=O)(N1CC1)N1CC1
T/C (dose: 22.0 mg/kg/injection, schedule: Q04DX003 (ip), vehicle: saline): 154 % of control | T/C (dose: 33.0 mg/kg/injection, schedule: Q04DX003 (ip), vehicle: saline): 222 % of control | T/C (dose: 50.0 mg/kg/injection, schedule: Q04DX003 (ip), vehicle: saline): 159 % of control | T/C (dose: 75.0 mg/kg/injection, schedule: Q04DX003 (ip), vehicle: saline): 118 % of control

CC(C)COC(=O)C1(N)CCCC1
T/C (dose: 100.0 mg/kg/injection, schedule: Q04DX003 (ip), vehicle: saline): 95 % of control | T/C (dose: 200.0 mg/kg/injection, schedule: Q04DX003 (ip), vehicle: saline): 104 % of control | T/C (dose: 400.0 mg/kg/injection, schedule: Q04DX003 (ip), vehicle: saline): 100 % of control

C[C@H]1C(=O)OCN1S(=O)(=O)C(C)(C)C
T/C [8]: 101 % of control | T/C [9]: 104 % of control | T/C [10]: 102 % of control
